Test results taken from patent US6924300B2, “Oxyiminoalkanoic acid derivatives” (Takeda Chemical Industries, Ltd., priority 1998, dated 2005).

Compound | melting point
Cc1oc(-c2ccccc2)nc1COc1ccc(CCCO/N=C(\C(=O)O)c2ccccc2)cc1 [Example 2, Z-2-[3-[4-(5-methyl-2-phenyl-4-oxazolylmethoxy)phenyl]propoxyimino]-2-phenylacetic acid] | 165 to 166 °C (dec.)
CN(CCOc1ccc(CO/N=C(\C(=O)O)c2ccccc2)cc1)c1ccccn1 [Example 3, Z-2-[4-[2-(methyl-2-pyridylamino)ethoxy]benzyloxyimino]-2-phenylacetic acid] | 93 to 94 °C
Cc1oc(-c2ccccc2)nc1COc1ccc(CO/N=C(\Cc2ccccc2)C(=O)O)cc1 [Example 6, E-2-[4-(5-methyl-2-phenyl-4-oxazolylmethoxy)benzyloxyimino]-3-phenylpropionic acid] | 143 to 144 °C (dec.)
CCCC/C(=N\OCc1ccc(OCc2nc(-c3ccccc3)oc2C)cc1)C(=O)O [Example 8, E-2-[4-(5-methyl-2-phenyl-4-oxazolylmethoxy)benzyloxyimino]hexanoic acid] | 112 to 114 °C
C/C(=N\OCc1ccc(OCc2nc(-c3ccccc3)oc2C)cc1)C(=O)O [Example 9, E-2-[4-(5-methyl-2-phenyl-4-oxazolylmethoxy)benzyloxyimino]propionic acid] | 147 to 148 °C
Cc1oc(-c2ccccc2)nc1COc1ccc(CO/N=C(\C(=O)O)c2cccc(Oc3ccccc3)c2)cc1 [Example 13, Z-2-[4-(5-methyl-2-phenyl-4-oxazolylmethoxy)benzyloxyimino]-2-(3-phenoxyphenyl)acetic acid] | 173 to 174 °C (dec.)
Cc1oc(-c2ccccc2)nc1COc1ccc(CO/N=C(/C(=O)O)c2cccc(Oc3ccccc3)c2)cc1 [Example 14, E-2-[4-(5-methyl-2-phenyl-4-oxazolylmethoxy)benzyloxyimino]-2-(3-phenoxyphenyl)acetic acid] | 55 to 65 °C
Cc1oc(-c2ccccc2)nc1COc1ccc(CO/N=C(\C(=O)O)c2ccc(F)cc2)cc1 [Example 15, Z-2-(4-fluorophenyl)-2-[4-(5-methyl-2-phenyl-4-oxazolylmethoxy)benzyloxyimino]acetic acid] | 182 to 183 °C (dec.)
Cc1oc(-c2ccccc2)nc1COc1ccc(CO/N=C(/C(=O)O)c2ccc(F)cc2)cc1 [Example 16, E-2-(4-fluorophenyl)-2-[4-(5-methyl-2-phenyl-4-oxazolylmethoxy)benzyloxyimino]acetic acid] | 150 to 151 °C (dec.)
Cc1oc(-c2ccccc2)nc1COc1ccc(CO/N=C(\CCCC(=O)O)c2ccccc2)cc1 [Example 18, E-5-[4-(5-methyl-2-phenyl-4-oxazolylmethoxy)benzyloxyimino]-5-phenylpentanoic acid] | 129 to 130 °C
CCOC(=O)/C(=N\OCc1ccc(OCc2nc(-c3ccccc3)oc2C)cc1)c1ccc(OC)cc1 [Example 19, ethyl Z-2-(4-methoxyphenyl)-2-[4-(5-methyl-2-phenyl-4-oxazolylmethoxy)benzyloxyimino]acetate] | 102 to 103 °C
CCOC(=O)/C(=N/OCc1ccc(OCc2nc(-c3ccccc3)oc2C)cc1)c1ccc(Br)cc1 [Example 22, ethyl E-2-(4-bromophenyl)-2-[4-(5-methyl-2-phenyl-4-oxazolylmethoxy)benzyloxyimino]acetate] | 105 to 106 °C
COc1ccc(/C(=N/OCc2ccc(OCc3nc(-c4ccccc4)oc3C)cc2)C(=O)O)cc1 [Example 24, Z-2-(4-methoxyphenyl)-2-[4-(5-methyl-2-phenyl-4-oxazolylmethoxy)benzyloxyimino]acetic acid] | 183 to 184 °C
Cc1oc(-c2ccccc2)nc1COc1ccc(CO/N=C(\C(=O)O)c2ccc(-c3ccsc3)cc2)cc1 [Example 30, Z-2-[4-(5-methyl-2-phenyl-4-oxazolylmethoxy)benzyloxyimino]-2-[4-(3-thienyl)phenyl]acetic acid] | 205 to 206 °C (dec.)
Cc1oc(-c2ccccc2)nc1COc1ccc(CO/N=C(\C(=O)O)c2ccc(/C=C/c3ccccc3)cc2)cc1 [Example 31, Z-2-[4-(5-methyl-2-phenyl-4-oxazolylmethoxy)benzyloxyimino]-2-[4-(E-2-phenylethenyl)phenyl]acetic acid] | 194 to 195 °C (dec.)
Cc1oc(-c2ccccc2)nc1COc1ccc(CO/N=C(\C(=O)O)c2cccnc2)cc1 [Example 35, Z-2-[4-(5-methyl-2-phenyl-4-oxazolylmethoxy)benzyloxyimino]-2-(3-pyridyl)acetic acid] | 156 to 157 °C (dec.)
Cc1oc(-c2ccccc2)nc1COc1ccc(CO/N=C(/C(=O)O)c2cccnc2)cc1 [Example 37, E-2-[4-(5-methyl-2-phenyl-4-oxazolylmethoxy)benzyloxyimino]-2-(3-pyridyl)acetic acid] | 130 to 131 °C (dec.)

Results, then the compound that gave them:

melting point | Compound
185 to 186 °C (dec.) | Cc1oc(-c2ccccc2)nc1COc1ccc(CO/N=C(\C(=O)O)c2cccc(C(=O)c3ccccc3)c2)cc1 [Example 40, Z-2-(3-benzoylphenyl)-2-[4-(5-methyl-2-phenyl-4-oxazolylmethoxy)benzyloxyimino]acetic acid]
181 to 182 °C (dec.) | Cc1oc(-c2ccccc2)nc1COc1ccc(CO/N=C(\C(=O)O)c2cccc(Br)c2)cc1 [Example 43, Z-2-(3-bromophenyl)-2-[4-(5-methyl-2-phenyl-4-oxazolylmethoxy)benzyloxyimino]acetic acid]
118 to 119 °C | CCOC(=O)CC/C(=N\OCc1ccc(OCc2nc(-c3ccccc3)oc2C)cc1)c1ccc(Oc2ccccc2)cc1 [Example 46, ethyl E-4-[4-(5-methyl-2-phenyl-4-oxazolylmethoxy)benzyloxyimino]-4-(4-phenoxyphenyl)butyrate]
131 to 132 °C | Cc1oc(-c2ccccc2)nc1COc1ccc(CO/N=C(\CCC(=O)O)c2ccc(Oc3ccccc3)cc2)cc1 [Example 47, E-4-[4-(5-methyl-2-phenyl-4-oxazolylmethoxy)benzyloxyimino]-4-(4-phenoxyphenyl)butyric acid]
73 to 74 °C | COC(=O)CC/C(=N\OCc1ccc(OCCc2nc(-c3ccccc3)oc2C)cc1)c1ccccc1 [Example 48, methyl E-4-[4-[2-(5-methyl-2-phenyl-4-oxazolyl)ethoxy]benzyloxyimino]-4-phenylbutyrate]
106 to 107 °C | Cc1oc(-c2ccccc2)nc1CCOc1ccc(CO/N=C(\CCC(=O)O)c2ccccc2)cc1 [Example 50, E-4-[4-[2-(5-methyl-2-phenyl-4-oxazolyl)ethoxy]benzyloxyimino]-4-phenylbutyric acid]
72 to 73 °C | CN(CCOc1ccc(CO/N=C(\CCC(=O)O)c2ccccc2)cc1)c1ncccn1 [Example 51, E-4-[4-[2-(methyl-2-pyrimidylamino)ethoxy]benzyloxyimino]-4-phenylbutyric acid]
107 to 108 °C | Cc1oc(-c2ccccc2)nc1COc1ccc(CON=C(CC(=O)O)c2ccccc2)cc1 [Example 53, 3-[4-(5-methyl-2-phenyl-4-oxazolylmethoxy)benzyloxyimino]-3-phenylpropionic acid]
160 to 161 °C | O=C(O)CC/C(=N\OCc1ccc(OCc2cn3c(Cl)cccc3n2)cc1)c1ccccc1 [Example 55, E-4-[4-(5-chloroimidazo[1,2-a]pyridin-2-ylmethoxy)benzyloxyimino]-4-phenylbutyric acid]
